Assay results from patent US20190241822A1, “COMPOSITION FOR REMOVING IRON SULFIDE” (KURARAY CO., LTD., priority 2016, published 2019).
Where two headings read alike, the source gives them in different places.

Key:
[1] = Removal test of iron sulfide; conditions: for time elapsed until iron sulfide was dissolved and the reaction solution became colorless transparent: 1.5 mmol aldehyde, 0.5 mmol iron sulfide in 500 mL water, 50° C., 500 rpm
[2] = type: physicochemical; conditions: 50° C., nitrogen atmosphere; for content ratio, 2 hours elapsed / content ratio, 4 hours elapsed / content ratio, 6 hours elapsed / content ratio, 10 hours elapsed: GC with internal standard; for content ratio, 0 hour: content immediately after temperature rise defined as 100%
Protocol: 50 mL of each of SAL and acrolein was charged in three-necked flask, and the contents were subjected to temperature rise to 50° C. in a nitrogen atmosphere. On the occasion when the content of each of SAL and acrolein immediately after the temperature rise was defined as 100%, a change of the content ratio was observed according to the calibration curve method by means of gas chromatography with an internal standard.
Analysis instrument: GC-14A (available from Shimadzu Corporation) Detector: FID (hydrogen flame ionization detector)
Column used: DB-1701 (length: 50 m, film thickness: 1 pn, inner diameter: 0.32 mm) (available from Agilent Technologies)
Analysis conditions: Injection temperature: 250° C., detection temperature: 250° C.
Temperature rise conditions: 70° C.→(temperature rise at 5° C./min)→250° C.
Internal standard substance: Diglyme (diethylene glycol dimethyl ether)

[3] = tested on: Rat; conditions: cited from earlier work
[4] = type: physicochemical; conditions: pH 1.7
Protocol: Each of SAL and acrolein was dissolved in 0.5 mol/L of phosphoric acid buffer solutions having a pH different from each other, thereby preparing 0.1 wt % solutions. 50 mL of each of the solutions was charged in a sample vial in a nitrogen atmosphere and stored at 23±2° C. On the occasion when the content of each of SAL and acrolein at the time of preparation was defined as 100%, a change of the content ratio was observed according to the absolute calibration curve by means of high-performance liquid chromatography analysis.
pH 1.7: 4.9 g of 75% phosphoric acid and 7.8 g of sodium dihydrogen phosphate dihydrate were dissolved in 200 mL of distilled water.
pH 6.2: 7.8 g of sodium dihydrogen phosphate dihydrate and 7.1 g of disodium hydrogen phosphate were dissolved in 200 mL of distilled water.
pH 8.1: 0.3 g of sodium dihydrogen phosphate dihydrate and 13.9 g of disodium hydrogen phosphate were dissolved in 200 mL of distilled water.
Analysis instrument: Prominence System (available from Shimadzu Corporation)
Column used: Cadenza CD-C18 (length: […], inner diameter: 4.6 mm)
Developing solution: H2O/MeOH=45/55 (volume ratio), H3PO4=1 mol/L

[5] = upper respiratory tract; cited from earlier work

| SMILES | time elapsed until iron sulfide was dissolved and the reaction solution became colorless transparent [1] [h] | content ratio, 2 hours elapsed [2] [%] | content ratio, 4 hours elapsed [2] [%] | content ratio, 6 hours elapsed [2] [%] | content ratio, 10 hours elapsed [2] [%] | content ratio, 0 hour [2] [%] | ratio lost after elapsing 10 hours ([2]; acrolein contained hydroquinone as a stabilizer) [%] | Acute toxicity, Rat LD50 ([3]; Rat) | pH stability as compared with acrolein [4] | Acute toxicity, Rat LD50 ([3]; rat, in vivo) | GHS Classification (under Permissible Exposure Limit) [5] | iron sulfide removal ability ([1]; compared with acrolein) |
| --- | --- | --- | --- | --- | --- | --- | --- | --- | --- | --- | --- | --- |
| CC(C)=CCCC(C)=CC=O [Citral, 3,7-dimethyl-2,6-octadienal] | 7 |  |  |  |  |  |  |  |  |  |  |  |
| C=CC=O [Acrolein, acrolein, reference compound] | 4 | 99.5 | 98.3 | 98.1 | 96.6 | 100.0 | 3.4 | Rat LD50: 42 mg/kg |  |  |  |  |
| CC(C)=CC=O [SAL, 3-methyl-2-butenal] | 4 | 100.0 | 100.0 | 100.0 | 99.9 | 100.0 |  |  | extremely high in the pH stability as compared with acrolein | Rat LD50: 690 mg/kg | GHS Classification; Section 1 (upper | equivalent to acrolein |
